For orientation: IC50 means the concentration that inhibits the measured activity by half. Low values mean inhibition by little substance, high ones a need for much substance. Usually Ki stands for a dissociation constant, usually derived from enzyme kinetics or from competition with a known ligand.

Molecules are shown by their SMILES.

Common to all, as to assay type: biochemical
One experiment has as its target HsGPI (Homo sapiens, UniProt P06744). The experiment in a line: G6PDH-coupled NADH assay at […] nm.
The target in experiment [1] is T1, CpGPI (MBP-CpGPI) (Cryptosporidium parvum, UniProt Q5CTF8).
T1 sequence (Q5CTF8 1-567): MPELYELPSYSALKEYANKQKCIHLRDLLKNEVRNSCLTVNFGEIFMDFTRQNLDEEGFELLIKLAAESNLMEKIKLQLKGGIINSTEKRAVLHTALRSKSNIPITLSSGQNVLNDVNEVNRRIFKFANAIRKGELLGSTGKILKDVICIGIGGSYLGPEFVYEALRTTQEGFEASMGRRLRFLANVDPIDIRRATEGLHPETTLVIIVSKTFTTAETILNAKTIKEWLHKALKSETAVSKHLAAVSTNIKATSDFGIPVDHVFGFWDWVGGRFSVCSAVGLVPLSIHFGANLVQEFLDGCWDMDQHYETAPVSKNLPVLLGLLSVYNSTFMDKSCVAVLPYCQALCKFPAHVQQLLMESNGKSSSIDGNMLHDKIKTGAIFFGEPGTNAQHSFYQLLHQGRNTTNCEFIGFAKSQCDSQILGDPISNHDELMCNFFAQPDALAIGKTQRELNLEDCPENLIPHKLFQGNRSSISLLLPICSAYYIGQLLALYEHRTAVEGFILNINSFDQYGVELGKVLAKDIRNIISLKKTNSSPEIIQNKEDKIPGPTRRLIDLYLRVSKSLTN
The experiment in a line: G6PDH-coupled NADH assay at […] nm, mixed noncompetitive fit.

Experiment [2] deals with T1, CpGPI (MBP-CpGPI). Put plainly: G6PDH-coupled NADH assay at […] nm.

Turning to `O=c1c2ccccc2[se]n1-c1ccccc1` [ebselen, 2-phenyl-1,2-benzisoselenazol-3(2H)-one], the results for the IC50 at HsGPI and at CpGPI (MBP-CpGPI) [2] were more than 400 µM and 8.33 µM, respectively. In addition, the affinity at CpGPI (MBP-CpGPI) [1] corresponds to a Ki of 36.3 µM.

The compound `O=C[C@H](O)[C@H](O)COP(=O)(O)O` [erythrose-4-phosphate] returned an IC50 against CpGPI (MBP-CpGPI) [2] of 132 µM.

The values are drawn from publication PMC6114080 (International Journal for Parasitology: Drugs and Drug …, 2018).
